Here are results for 18 compounds from patent publication US20130023563A1, “AMIDINOANILINE DERIVATIVE” (AJINOMOTO CO., INC., priority 2010, published 2013).

Where a name gives a salt, the structure may show the parent alone.

What all share (type): biochemical
One test has as its target FXa (Homo sapiens, UniProt P00742). Kind of test: Measurement of inhibitory activity against activated factor X (chromogenic substrate S-2222). Conditions: 0.015 U/ml FXa, 0.2 mM S-2222, absorbance 405 nm; read-out: FXa (pIC50) (converted). On the procedure: Experimental Example 1 Measurement of Inhibitory Activity Against Activated Factor X Activity
(§1) Using a 96-well plate (#3396, Costar), 100 mM Tris-HC1 buffer (130 μL) containing 0.02% Tween 20, 0.1% PEG6000 and 0.2M NaCl was admixed with 0.015 U/ml FXa (10 μL) and a test compound (10 μL) for 10 min and a color developing substrate 0.2 mM S-2222 (50 μL) was added. Using a microplate reader Benchmark Plus (BIO-RAD), the reaction rate was measured from the time course changes at absorbance 405 nm. Using the reaction rate of the control as 100%, the negative logarithmic value of the concentration that can suppress the reaction rate of the control by 50% was taken as the pIC50 value.

Test [1] addresses activated factor IIa (thrombin) (Homo sapiens, UniProt P00734). The experiment in a line: Measurement of inhibitory activity against activated factor II (chromogenic substrate S-2238). The settings on record: 0.125 U/ml thrombin, 0.1 mM S-2238, absorbance 405 nm; read-out: FIIa (pIC50) (converted). The procedure: Experimental Example 2 Measurement of Inhibitory Activity Against Activated Factor II (FIIa, Thrombin)
as §1, with “mM Tris-HCl” for “mM Tris-HC1”, “with 0.125” for “with 0.015”, “U/ml activated factor IIa (thrombin)” for “U/ml FXa”, “substrate 0.1” for “substrate 0.2”, “mM S-2238” for “mM S-2222”

Test [2] concerns human plasma. Kind of test: Anti-blood coagulant activity, aPTT method, Sysmex CA-1500 (Experimental Example 3-1). Conditions: negative logarithmic value of the concentration that prolongs aPTT of the control 2 times. The procedure: Experimental Example 3-1 Measurement of Anti-Blood Coagulant Activity
Examples 1, 8, 9, 11, 13, 16-19 and 22 were measured according to the following method.
(§2) An aPTT measurement method using totally automatic blood coagulation time measuring apparatus Sysmex CA-1500 was used. A 10 mg/ml DDVP solution (DDVP standard product, Wako) (4 μL) and a test compound solution (20 μL) were placed in a sample tube (MS-18, Japan Medical Science), human plasma (standard human plasma for blood coagulation test, GCH-100A, Sysmex) (180 μL) was added and the mixture was used as a test sample. The test sample (50 μL) was incubated at 37° C. for 1 min, data fi APTT (rabbit brain-derived cephalin, DADE Behiring) (50 μL) was added, and the mixture was further incubated at 37° C. for 2 min. To the sample solution was added 0.02M calcium chloride (50 μL), and the time until plasma coagulation was automatically measured.
(§3) As the anti-blood coagulant activity, the negative logarithmic value of the concentration that prolongs aPTT of the control 2 times is shown as paPTT2.

In test [3] the test system is human plasma. Kind of test: Anti-blood coagulant activity, aPTT method, Sysmex Cs-2000i (Experimental Example 3-2). Conditions: negative logarithmic value of the concentration that prolongs aPTT of the control 2 times. On the procedure:
Experimental Example 3-2 Measurement of Anti-Blood Coagulant Activity
as §2, with “Cs-2000i” for “CA-1500”, “(8” for “(4”, “(40” for “(20”, “(360” for “(180”
as §3

FXa, sequence (P00742 235-488 limits assumed): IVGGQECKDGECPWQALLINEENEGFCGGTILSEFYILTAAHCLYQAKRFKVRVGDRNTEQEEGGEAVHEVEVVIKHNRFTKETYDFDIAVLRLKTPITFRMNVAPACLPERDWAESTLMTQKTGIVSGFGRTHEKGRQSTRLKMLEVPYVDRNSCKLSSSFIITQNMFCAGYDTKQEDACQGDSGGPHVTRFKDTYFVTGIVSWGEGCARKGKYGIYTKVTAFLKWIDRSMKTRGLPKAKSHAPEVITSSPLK
FXa, sequence (P00742 41-179 partner limits assumed): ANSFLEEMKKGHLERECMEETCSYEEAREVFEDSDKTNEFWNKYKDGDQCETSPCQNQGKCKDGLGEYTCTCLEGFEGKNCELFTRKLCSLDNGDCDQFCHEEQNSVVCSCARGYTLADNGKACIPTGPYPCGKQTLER

As for `CN(CC(=O)Oc1ccc(C(=N)N2CCCC2)cc1)c1cccc(C(=N)N)c1` [compound of Ex. 1, 4-[imino(pyrrolidin-1-yl)methyl]phenyl N-{3-[amino(imino)methyl]phenyl}-N-methylglycinate 2 trifluoroacetate], the IC50 at FXa was 45.7 nM; in test [1] it was greater than 100000 nM. The compound also registered a paPTT2 with human plasma [2] of 5.48.

Turning to `N=C(N)c1cccc(N2CCC[C@H]2C(=O)Oc2ccc(C(=N)N3CCCC3)cc2)c1` [compound of Ex. 8, 4-[imino(pyrrolidin-1-yl)methyl]phenyl 1-{3-[amino(imino)methyl]phenyl}-L-prolinate 2 trifluoroacetate], the IC50 is 282 nM on FXa and 25700 nM in test [1]. The paPTT2 with human plasma [2] is listed as 5.66.

Take `N=C(N)c1cccc(N2CCC[C@@H]2C(=O)Oc2ccc(C(=N)N3CCCC3)cc2)c1` [compound of Ex. 9, 4-[imino(pyrrolidin-1-yl)methyl]phenyl 1-{3-[amino(imino)methyl]phenyl}-D-prolinate 2 trifluoroacetate]: the figures for the IC50 (at FXa; in test [1]) were 20 nM and 692 nM, respectively. The same compound gave a paPTT2 in the test on human plasma [2] of 6.69.

In the case of `N=C(N)c1cccc(N2CCCC[C@H]2C(=O)Oc2ccc(C(=N)N3CCCC3)cc2)c1` [compound of Ex. 16, 4-[imino(pyrrolidin-1-yl)methyl]phenyl (2S)-1-{3-[amino(imino)methyl]phenyl}piperidine-2-carboxylate 2 trifluoroacetate], the IC50 was 15.1 nM at FXa and 70800 nM in test [1]. For the same compound, the paPTT2 with human plasma [2] is on record as 6.85.

On to `CC(=N)N1CCC(Oc2ccc(OC(=O)[C@@H]3CCCCN3c3cccc(C(=N)N)c3)cc2)CC1` [compound of Ex. 17, 4-[(1-ethanimidoylpiperidin-4-yl)oxy]phenyl (2S)-1-{3-[amino(imino)methyl]phenyl}piperidine-2-carboxylate 2 trifluoroacetate], for which the results for the IC50 (on FXa; in test [1]) were 40.7 nM and 53700 nM, respectively. The compound further had a paPTT2 in the test with human plasma [2] of 6.33.

As for `COc1cc(C(=N)N2CCCC2)ccc1OC(=O)[C@H](C)N(C)c1cccc(C(=N)N)c1` [compound of Ex. 36, 4-[imino(pyrrolidin-1-yl)methyl]-2-methoxyphenyl N-{3-[amino(imino)methyl]phenyl}-N-methyl-L-alaninate 2 trifluoroacetate], the results for the IC50 (on FXa; in test [1]) were 31.6 nM and 7080 nM, respectively. This compound returned a paPTT2 with human plasma [3] of 6.67.

`CCC(C)[C@H](C(=O)Oc1ccc(C(=N)N2CCCC2)cc1F)N(C)c1cccc(C(=N)N)c1` (stereo partly drawn) [compound of Ex. 39, 2-fluoro-4-[imino(pyrrolidin-1-yl)methyl]phenyl N-{3-[amino(imino)methyl]phenyl}-N-methyl-L-isoleucinate 2 trifluoroacetate]: the IC50 is 15.1 nM on FXa and 25700 nM in test [1]. Moreover, the paPTT2 with human plasma [3] was found to be 6.50.

As to `CC(=N)N1CCC(Oc2ccc(OC(=O)[C@@H](COC(C)(C)C)N(C)c3cccc(C(=N)N)c3)cc2)CC1` [compound of Ex. 40, 4-[(1-ethanimidoylpiperidin-4-yl)oxy]phenyl N-{3-[amino(imino)methyl]phenyl}-O-(tert-butyl)-N-methyl-L-serinate 2 trifluoroacetate], the results for the IC50 (on FXa; in test [1]) were 4.47 nM and 34700 nM, respectively. The same compound showed a paPTT2 with human plasma [3] of 6.53.

Turning to `CCCC[C@H](C(=O)Oc1ccc(OC2CCN(C(C)=N)CC2)cc1)N(C)c1cccc(C(=N)N)c1` [compound of Ex. 41, 4-[(1-ethanimidoylpiperidin-4-yl)oxy]phenyl N-{3-[amino(imino)methyl]phenyl}-N-methyl-L-norleucinate 2 trifluoroacetate], the figures for the IC50 (at FXa; in test [1]) were 2.95 nM and 2190 nM, respectively. Moreover, the paPTT2 with human plasma [3] is listed as 6.53.

With `CC(=N)N1CCC(Oc2ccc(OC(=O)[C@H](CO)N(C)c3cccc(C(=N)N)c3)cc2)CC1` [compound of Ex. 42, 4-[(1-ethanimidoylpiperidin-4-yl)oxy]phenyl N-{3-[amino(imino)methyl]phenyl}-N-methyl-L-serinate 2 trifluoroacetate], the IC50 on FXa was 13.8 nM; in test [1] it was 51300 nM. This compound also returned a paPTT2 in the test on human plasma [3] of 6.64.

Turning to `CCCC[C@@H](C(=O)Oc1ccc(C(=N)N2CCCC2)cc1OC)N(C)c1cccc(C(=N)N)c1` [compound of Ex. 43, 4-[imino(pyrrolidin-1-yl)methyl]-2-methoxyphenyl N-{3-[amino(imino)methyl]phenyl}-N-methyl-L-norleucinate 2 trifluoroacetate], the IC50 on FXa is 3.09 nM; in test [1] it was 977 nM. Moreover, in the test on human plasma [3], the paPTT2 stood at 6.90.

As for `CCC[C@H](C(=O)Oc1ccc(OC2CCN(C(C)=N)CC2)cc1)N(C)c1cccc(C(=N)N)c1` [compound of Ex. 44, 4-[(1-ethanimidoylpiperidin-4-yl)oxy]phenyl N-{3-[amino(imino)methyl]phenyl}-N-methyl-L-norvalinate 2 trifluoroacetate], the results for the IC50 (at FXa; in test [1]) were 3.16 nM and 1740 nM, respectively. The same compound showed a paPTT2 with human plasma [3] of 6.87.

Consider `CCCC[C@@H](C(=O)Oc1ccc(C(=N)N2CCCC2)cc1C)N(C)c1cccc(C(=N)N)c1` [compound of Ex. 45, 4-[imino(pyrrolidin-1-yl)methyl]-2-methylphenyl N-{3-[amino(imino)methyl]phenyl}-N-methyl-L-norleucinate 2 trifluoroacetate], for which the figures for the IC50 (at FXa; in test [1]) were 3.02 nM and 2570 nM, respectively. This compound also returned a paPTT2 with human plasma [3] of 6.71.

Consider `CN(c1cccc(C(=N)N)c1)[C@@H](Cc1ccccc1)C(=O)Oc1ccc(C(=N)N2CCCC2)cc1` [compound of Ex. 46, 4-[imino(pyrrolidin-1-yl)methyl]phenyl N-{3-[amino(imino)methyl]phenyl}-N-methyl-L-phenylalaninate 2 trifluoroacetate], for which the IC50 is 2.95 nM on FXa and 15500 nM in test [1]. In the test on human plasma [3], this compound displayed a paPTT2 of 6.87.

As for `CCC(C(=O)Oc1ccc(C(=N)N2CCCC2)cc1)N(C)c1cccc(C(=N)N)c1` (stereo not drawn) [compound of Ex. 47, 4-[imino(pyrrolidin-1-yl)methyl]phenyl 2-[{3-[amino(imino)methyl]phenyl}(methyl)amino]butanoate 2 trifluoroacetate], the IC50 on FXa is 8.13 nM; in test [1] it was 22400 nM. Moreover, the paPTT2 in the test with human plasma [3] turned out to be 6.82.

Consider `N=C(N)c1cccc(N2CCCC[C@@H]2C(=O)Oc2ccc(C(=N)N3CCCC3)nc2)c1` [compound of Ex. 50, 6-[imino(pyrrolidin-1-yl)methyl]pyridin-3-yl (2R)-1-{3-[amino(imino)methyl]phenyl}piperidine-2-carboxylate 2 trifluoroacetate], for which the results for the IC50 (on FXa; in test [1]) were 5.5 nM and 3630 nM, respectively. This compound also yielded a paPTT2 in the test on human plasma [3] of 6.66.

As to `COC(=O)c1cc(C(=N)N2CCCC2)ccc1OC(=O)[C@H]1CCCCN1c1cccc(C(=N)N)c1` [compound of Ex. 51, 4-[imino(pyrrolidin-1-yl)methyl]-2-(methoxycarbonyl)phenyl (2R)-1-{3-[amino(imino)methyl]phenyl}piperidine-2-carboxylate 2 trifluoroacetate], the IC50 at FXa is 14.1 nM; in test [1], 2240 nM. This compound also yielded a paPTT2 in the test on human plasma [3] of 6.79.

For `N=C(N)c1cccc(N2CCCC[C@@H]2C(=O)Oc2ccc(C(=N)N3CCCC3)cc2C(=O)O)c1` [compound of Ex. 52, 2-{[((2R)-1-{3-[amino(imino)methyl]phenyl}piperidin-2-yl)carbonyl]oxy}-5-[imino(pyrrolidin-1-yl)methyl]benzoic acid 2 trifluoroacetate], the IC50 was 18.2 nM on FXa and greater than 100000 nM in test [1]. The paPTT2 in the test on human plasma [3] was 6.35.
